Patent US8580493B2, “Screening for compounds that modulate GPR3-mediated beta-arrestin signaling and amyloid beta peptide generation” (VIB VZW, priority 2009, dated 2013)

What was measured:
[1] = system: Aβ generation in HEK293 APP695 cells; assay: Aβ1-40 and Aβ1-42 ELISA of culture supernatants after siRNA transfection of HEK293 APP695 cells; assay type: cell-based; details: HEK293 APP695 cells co-transfected with human GPR3 plasmid, 20 μg siRNA
From the text: FIGS. 1A and 1B: Effect of siRNA-mediated β-arrestin depletion on Aβ1-40 (FIG. 1A) and Aβ1-42 (FIG. 1B) generation in HEK293 APP695 cells. Cells were transfected with pcDNA or GPR3, and siRNA targeting β-arrestin 1, 2, both, or a non-silencing (control) RNA duplex prior to measurement of Aβ1-40 (FIG. 1A) and Aβ1-42 (FIG. 1B) secretion in cell culture supernatants by ELISA. The results are expressed as the mean percentage ±SD of three independent experiments performed in duplicate relative to non-silencing siRNA (control).
Chemically synthesized, double-stranded siRNAs targeting β-arrestin 1 or 2 with 19-nucleotide duplex RNA and 2-nucleotide 3′-dTdT overhangs containing fluorescent tags to determine transfection efficiency were purchased from Qiagen. The sequences of the siRNA have been previously described (Ahn et al. 2003; 2004; see also Table 1). As a control, non-silencing siRNA with the sequence 5′-[…]-3′ (SEQ ID NO:10) was used in the experiment. […]
To directly determine the requirement of β-arrestin 1 or 2 for constitutive and GPR3-mediated Aβ generation, Aβ levels were measured in HEK293 APP695 cells following transfection with siRNA that specifically targets either β-arrestin 1 or 2 or both. β-arrestin 2 siRNA reduced constitutive Aβ1-40 and Aβ1-42 generation. […]

[2] = system: Aβ generation in CHO/β-arrestin 2/GPR3 cells; assay: Aβ1-40 and Aβ1-42 ELISA of culture supernatants after siRNA transfection of CHO/β-arrestin 2/GPR3 cells; assay type: cell-based, Chinese hamster; details: 20 μg siRNA, FIG. 6
From the text: Chemically synthesized, double-stranded siRNAs targeting β-arrestin 1 or 2 with 19-nucleotide duplex RNA and 2-nucleotide 3′-dTdT overhangs containing fluorescent tags to determine transfection efficiency were purchased from Qiagen. The sequences of the siRNA have been previously described (Aim et al. 2003; 2004; see also Table 1). As a control, non-silencing siRNA with the sequence 5′-[…]-3′ (SEQ ID NO:10) was used in the experiment. The PathHunter™ Chinese hamster ovary (CHO) GPR3 β-arrestin 2 cell line, which stably expresses GPR3 and β-arrestin 2, was transfected with 20 μg of siRNA using the GeneSilencer Transfection reagent (Genlantis) as previously described by Aim et al. (2003). Forty-eight hours following transfection, cells were divided into six-well and 96-well plates for further experiments. Twenty-four hours after plating, cells were placed in serum-free medium for an additional 24 hours. The PathHunter™ β-arrestin assay was performed on the cells in the 96-well plate to determine the extent of β-arrestin 2 recruitment to GPR3 following a reduction in the expression of β-arrestin 1 or β-arrestin 2.
Culture supernatant samples were collected from cells seeded in the six-well plates to determine the effect of a reduction in β-arrestin 2 recruitment to GPR3 on Aβ1-40 and Aβ1-42 generation. […]

[3] = system: β-arrestin 2 recruitment to GPR3; assay: PathHunter β-arrestin assay after siRNA transfection of the CHO GPR3 β-arrestin 2 cell line; assay type: cell-based, Chinese hamster; details: PathHunter CHO GPR3 β-arrestin 2 cells, 20 μg siRNA, FIG. 5
From the text: A modified β-galactosidase complementation assay, referred to as PathHunter™ technology, is another preferred assay method (Olson and Eglen 2007). The principle of the assay is the detection of an interaction between GPR3 and β-arrestin following receptor activation. The assay is unique because it provides a direct measure of β-arrestin binding, whereas imaging assays detect the movement of β-arrestin. […] The assay makes use of a low affinity peptide derived from the amino-terminus of Escherichia coli β-galactosidase, which is tethered to the carboxy-terminus of GPR3 (ProLink™ tag), and a w-deletion mutant of β-galactosidase, which is fused to β-arrestin (enzyme acceptor or EA). The use of the low-affinity ProLink™ peptide ensures that the enzyme fragment complementation (EFC) reaction is driven by the receptor-stimulated, reversible interaction of GPR3 with β-arrestin and not by β-galactosidase complementation in the absence of receptor stimulation. Thus, complementation between β-arrestin and GPR3 results in the formation of a functional enzyme that is capable of hydrolyzing a substrate and generating a chemiluminescent signal. Given the finding that β-arrestin modulates Aβ release, the PathHunter™ β-arrestin assay would facilitate the identification of potential allosteric modulators of Aβ generation. […]

## 5′-AAAGCCUUCUGCGCGGAGAAU-3′ [β-arrestin 1 siRNA]
[1]; FIG. 1A
  Aβ1-40 generation with GPR3 co-transfection: further reduction
[1]; FIG. 1B
  Aβ1-42 generation with GPR3 co-transfection: further reduction
[2]
  Aβ1-40 generation: did not affect
  Aβ1-42 generation: modestly stimulated
[3]
  β-arrestin 2 recruitment to GPR3 (chemiluminescent signal): clear increase
